Measured values reported in patent US6281214A, “Biphenyl derivatives” (Eisai Co., Ltd, priority 1994, dated 2001).
Where a name gives a salt, the structure may show the parent alone. Read-outs that look alike come from different tables or passages of the source.

Assays:
Set-up in all cases: species or system SD rats
dopamine D2 receptor = target: T1, dopamine D2 receptor (Rattus norvegicus, UniProt P61169); experiment: dopamine D2 receptor binding test ([3H] Spiperone Binding Test); settings: 1 nM [3H] Spiperone, rat corpus striatum, room temperature, 60 minutes
T1 construct: the receptor fraction prepared from the corpus striatum was molten and suspended; from tissue; host or cells: corpus striatum of SD rats (membrane fraction)
Procedure: (§1) The compounds of the present invention were subjected to each of serotonin S2 receptor binding test, dopamine D2 receptor binding test and adrenergic α1 receptor binding test.
(§2) The following reagents were used in this test.
(§3) These reagents and samples were each dissolved in 10% ethanol before use. Among them, water-insoluble compounds were each dissolved in ethanol and the obtained solution was diluted with distilled water to an ethanol concentration of 10%. Further, Methylsergide maleate was used in a state dissolved in distilled water.
(§4) SD rats aged 6 to 8 weeks were used.
(§5) SD rats were each slaughtered with a guillotine to extirpate its cerebrum. The cortex and corpus striatum were separated from the cerebrum. The former was used in serotonin S2 receptor binding test and adrenergic α1, receptor binding test, while the latter was used in dopamine D2 receptor binding test.
On the other hand, the corpus striatum was homogenized in a 0.32 M sucrose solution in an amount ten times the wet weight of the corpus striatum by the use of a teflon glass homogenizer and the obtained mixture was centrifuged at 1,000×G for 20 minutes. The obtained supernatant was centrifuged at 10,000×G for 20 minutes. The obtained sediments were suspended together in 50 mM Tris hydrochloride (pH 7.4) in an amount ten times the initial wet weight of the corpus striatum by the use of a histocothrom, and the obtained suspension was centrifuged at 10,000×G for 20 minutes. This operation was repeated thrice. The resulting sediment was suspended in 50 mM Krebs-Tris (pH 7.4) in an amount 100 times the initial wet weight of the corpus striatum by the use of a histocothrom. The obtained suspension was used as a receptor fraction. This receptor fraction was stored at -80° C. until use.
(§6) Each IC50 value was calculated by the probit method and each Ki value was determined by the following formula: [formula]
(§7) In the above formula, C represents the concentration of radioligand, and Kd represents the affinity of radioligand for the receptor as determined by the Scatchard analysis.
5. [^3 H] Spiperone Binding Test
(§8) This test was conducted in the same manner as that of the binding test of [^3 H] Ketanserin except that the receptor fraction prepared from the corpus striatum was molten and suspended with a histocothrom, and the obtained suspension was incubated together with 1 nM-[^3 H], Spiperone at room temperature for 60 minutes and that the binding detected in the presence of 10 μl of Spiperone was regarded as nonspecific binding.

adrenergic α1 receptor = adrenergic α1 receptor binding test ([3H] Prazosin Binding Test); settings: 1 nM [3H] Prazosin, rat cortex, room temperature, 60 minutes
Procedure: as §1, §2, §3, §4, §5
(§9) The cortex was homogenized in a 0.32 M sucrose solution in an amount ten times the wet weight of the cortex by the use of a teflon glass homogenizer and the resulting mixture was centrifuged at 10,000×G for 20 minutes. The obtained sediment was suspended in 50 mM Tris hydrochloride (pH 7.4) in an amount ten times the initial wet weight of the cortex by the use of a histocothrom, and the obtained suspension was centrifuged at 10,000×G for 20 minutes. This operation was repeated twice. The obtained sediment was suspended in 50 mM Tris hydrochloride (pH 7.4) in an amount 20 times the initial wet weight of the cortex by the use of a histocothrom. The suspension thus prepared was used as a receptor fraction. This receptor fraction was stored at -80° C. until use.
as §6, §7
6. [^3 H] Prazosin Binding Test
as §8, with “cortex” for “corpus striatum”, “H] Prazosin” for “H], Spiperone”, “Phentolamine” for “Spiperone”

serotonin S2 receptor = target: T2, serotonin S2 receptor (Rattus norvegicus, UniProt P14842); experiment: serotonin S2 receptor binding test ([3H] Ketanserin Binding Test); settings: 1 nM [3H] Ketanserin, rat cortex, 37° C., 15 minutes
T2 construct: The receptor fraction prepared from the cortex was molten and suspended; from tissue; host or cells: cerebral cortex of SD rats (membrane fraction)
Procedure: as §1, §2, §3, §4, §5, §9
4. [^3 ] Ketanserin Binding Test
The receptor fraction prepared from the cortex was molten and suspended by the use of a histocothrom. The resulting suspension was incubated together with 1 nM-[^3 H] Ketanserin at 37° C. for 15 minutes. The resulting reaction system was filtered through a Whatman GF/B glass filter with an MR-30R type cell harvester mfd. by Blandel. The resulting filter was washed twice with 5 ml of 50 mM Tris hydrochloride (ph 7.4) cooled with ice and the radioactivity of the Ketanserin bound the receptor was determined by the use of a liquid scintillation counter with 5 ml of ACS II. The binding detected in the presence of […] of Methylsergide was regarded as nonspecific binding.
as §6, §7

[1] = read-out: Ki value, dopamine D2 receptor

T1 sequence (P61169 whole entry): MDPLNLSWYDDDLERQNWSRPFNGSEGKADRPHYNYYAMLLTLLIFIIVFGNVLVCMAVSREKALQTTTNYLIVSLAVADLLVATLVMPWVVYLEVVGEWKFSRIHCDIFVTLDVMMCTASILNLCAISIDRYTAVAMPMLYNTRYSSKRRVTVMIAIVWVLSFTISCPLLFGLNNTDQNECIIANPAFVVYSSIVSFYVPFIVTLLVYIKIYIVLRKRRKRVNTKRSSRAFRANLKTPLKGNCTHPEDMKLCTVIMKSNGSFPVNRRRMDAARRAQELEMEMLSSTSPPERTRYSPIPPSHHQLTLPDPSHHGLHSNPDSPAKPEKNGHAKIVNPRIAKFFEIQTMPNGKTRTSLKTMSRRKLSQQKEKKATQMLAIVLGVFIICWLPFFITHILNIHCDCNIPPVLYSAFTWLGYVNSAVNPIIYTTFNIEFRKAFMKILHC
T2 sequence (P14842 whole entry): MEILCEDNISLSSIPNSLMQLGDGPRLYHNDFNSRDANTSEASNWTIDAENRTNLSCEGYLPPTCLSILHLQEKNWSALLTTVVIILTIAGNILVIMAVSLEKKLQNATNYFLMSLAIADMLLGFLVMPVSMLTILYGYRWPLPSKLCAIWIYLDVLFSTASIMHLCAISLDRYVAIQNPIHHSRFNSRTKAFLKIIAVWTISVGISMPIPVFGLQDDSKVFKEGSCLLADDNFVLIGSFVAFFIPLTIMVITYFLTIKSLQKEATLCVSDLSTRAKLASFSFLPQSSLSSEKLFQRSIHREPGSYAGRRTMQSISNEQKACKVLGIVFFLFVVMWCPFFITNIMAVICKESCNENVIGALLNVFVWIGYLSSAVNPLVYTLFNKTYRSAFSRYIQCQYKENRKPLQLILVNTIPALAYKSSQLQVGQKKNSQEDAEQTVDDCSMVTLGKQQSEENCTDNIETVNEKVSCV

In the case of `CCC(F)c1cc(N2CCN(CCO)CC2)cc(-c2ccccc2C#N)c1Cl` (single isomer, unassigned) [Example 13, 1-(2-hydroxyethyl)-4-[3-(2-cyanophenyl)-4-chloro-5-(fluoropropyl)]phenylpiperazine], the Ki (dopamine D2 receptor; [1]) is reported as 0.00405 µM, the Ki (adrenergic α1 receptor) is reported as 0.404 µM and the Ki (serotonin S2 receptor) is reported as 0.0249 µM.

For `CCCS(=O)(=O)Nc1cc(N2CCN(CC)CC2)cc(-c2ccccc2C)c1Cl` [Example 17, 1-ethyl-4-[3-(2-tolyl)-4-chloro-5-propanesulfonylamino]phenylpiperazine hydrochloride], the Ki (dopamine D2 receptor; [1]) was > 0.1 µM, the Ki (adrenergic α1 receptor; hydrochloride) was 0.55 µM and the Ki (serotonin S2 receptor) was 0.374 µM.

In the case of `CCN1CCN(c2cc(NS(=O)(=O)CC)c(Cl)c(-c3ccccc3C)c2)CC1` [Example 18, 1-Ethyl-4-[3-(2-tolyl)-4-chloro-5-ethanesulfonylamino]phenylpiperazine], the Ki (dopamine D2 receptor; [1]) is reported as 0.00075 µM, the Ki (adrenergic α1 receptor) is reported as 0.0537 µM and the Ki (serotonin S2 receptor) is reported as 0.00615 µM.

Compound `CCCCS(=O)(=O)Nc1cc(N2CCN(CC)CC2)cc(-c2ccccc2C)c1Cl` [Example 19, 1-Ethyl-4-[3-(2-tolyl)-4-chloro-5-butanesulfonylamino]phenylpiperazine] has a Ki (dopamine D2 receptor; [1]) of 0.00064 µM, a Ki (adrenergic α1 receptor) of 0.0816 µM and a Ki (serotonin S2 receptor) of 0.00195 µM.

With `CCC(F)c1cc(N2CCN(C)CC2)cc(-c2ccccc2C#N)c1Cl` (centres unmarked) [Example 20, 1-Methyl-4-[3-(2-cyanophenyl)-4-chloro-5-(1-fluoropropyl)]phenylpiperazine] the Ki (dopamine D2 receptor; [1]) was 0.00282 µM, the Ki (adrenergic α1 receptor) was 0.314 µM and the Ki (serotonin S2 receptor) was 0.00611 µM.

`CCC(F)c1cc(N2CCN(CC)CC2)cc(-c2ccccc2C#N)c1Cl` (centres unmarked) [Example 21] was tested, and the Ki (dopamine D2 receptor; [1]) was 0.00185 µM, the Ki (adrenergic α1 receptor) was 0.418 µM and the Ki (serotonin S2 receptor) was 0.0144 µM.

`CCC(F)c1cc(N2CCN(C)CC2)cc(-c2ccccc2Cl)c1Cl` (centres unmarked) [Example 22, 1-Methyl-4-[3-(2-chlorophenyl)-4-chloro-5-(1-fluoropropyl)]phenylpiperazine] gave a Ki (dopamine D2 receptor; [1]) of 0.00284 µM, a Ki (adrenergic α1 receptor) of 0.809 µM and a Ki (serotonin S2 receptor) of 0.0192 µM.

With `CCC(F)c1cc(N2CCN(CCO)CC2)cc(-c2ccccc2Cl)c1Cl` (centres unmarked) [Example 23, 1-(2-Hydroxyethyl)-4-[3-(2-chlorophenyl)-4-chloro-5-(1-fluoropropyl)]phenylpiperazine] the Ki (dopamine D2 receptor; [1]) was 0.00722 µM and the Ki (serotonin S2 receptor) was 0.0512 µM.

`CCC(F)c1cc(N2CCN(CC)CC2)cc(-c2ccccc2Cl)c1Cl` (centres unmarked) [Example 24, 1-Ethyl-4-[3-(2-chlorophonyl)-4-chloro-5-(1-fluoropropyl)]phenylpiperazine] was tested, and the Ki (dopamine D2 receptor; [1]) was 0.0036 µM, the Ki (adrenergic α1 receptor) was 0.537 µM and the Ki (serotonin S2 receptor) was 0.0409 µM.

In the case of `CCC(F)c1cc(N2CCN(C)CC2)cc(-c2ccccc2C)c1Cl` (centres unmarked) [Example 25, 1-Methyl-4-[3-(2-tolyl)-4-chloro-5-(1-fluoropropyl)]phenylpiperazine], the Ki (dopamine D2 receptor; [1]) is reported as 0.0024 µM, the Ki (adrenergic α1 receptor) is reported as > 1 µM and the Ki (serotonin S2 receptor) is reported as 0.00827 µM.

`CCC(F)c1cc(N2CCN(CCO)CC2)cc(-c2ccccc2C)c1Cl` (centres unmarked) [Example 26, 1-(2-Hydroxyethyl)-4-[3-(2-tolyl)-4-chloro-5-(1-fluloropropyl)]phenylpiperazine] was tested, and the Ki (dopamine D2 receptor; [1]) was 0.00267 µM, the Ki (adrenergic α1 receptor) was > 1 µM and the Ki (serotonin S2 receptor) was 0.0216 µM.

Compound `CCC(F)c1cc(N2CCN(CC)CC2)cc(-c2ccccc2C)c1Cl` (centres unmarked) [Example 27, 1-Ethyl-4-[3-(2-tolyl)-4-chloro-5-(1-fluloropropyl)]phenylpiperazine] has a Ki (dopamine D2 receptor; [1]) of 0.0112 µM, a Ki (adrenergic α1 receptor) of 0.455 µM and a Ki (serotonin S2 receptor) of 0.0109 µM.

In the case of `CCS(=O)(=O)Nc1cc(N2CCN(C)CC2)cc(-c2ccccc2C)c1Cl` [Example 28, 1-Methyl-4-[3-(2-tolyl)-4-chloro-5-ethanesulfonylamino]phenylpiperazine], the Ki (dopamine D2 receptor; [1]) is reported as 0.0016 µM, the Ki (adrenergic α1 receptor) is reported as 0.0508 µM and the Ki (serotonin S2 receptor) is reported as 0.00567 µM.

`CCN1CCN(c2cc(NS(=O)(=O)c3ccccc3)c(OC)c(-c3ccccc3)c2)CC1` [Example 120] showed a Ki (dopamine D2 receptor; [1]) of 0.00036 µM and a Ki (serotonin S2 receptor) of 0.0174 µM.

With `CCS(=O)(=O)c1cc(N2CCN(Cc3ccccn3)CC2)cc(-c2ccc(F)cc2)c1OC` [Example 199, 1-(2-Pyridylmethyl)-4-[3-(4-fluorophenyl)-4-methoxy-5-ethanesulfonyl]phenylpiperazine] the Ki (dopamine D2 receptor; [1]) was 0.0515 µM and the Ki (serotonin S2 receptor) was 0.0632 µM.

Work on `CCS(=O)(=O)c1cc(N2CCNCC2)cc(-c2ccc(F)cc2)c1OC` [Example 202, 1-[3-(4-Fluorophenyl)-4-methoxy-5-ethanesulfonyl]phenylpiperazine] yielded a Ki (dopamine D2 receptor; Ki value, dopamine D2 receptor) of 0.0905 µM and a Ki (serotonin S2 receptor) of 0.00633 µM.

`CCS(=O)(=O)c1cc(N2CCN(CCF)CC2)cc(-c2ccc(F)cc2)c1OC` [Example 203, 1-(2-Fluoroethyl)-4-[3-(4-fluorophenyl)-4-methoxy-5-ethanesulfonyl]phenylpiperazine] was tested, and the Ki (serotonin S2 receptor) was 0.0548 µM.

Work on `C/C=C/c1cc(N2CCN(CC)CC2)cc(-c2ccccc2Cl)c1Cl` [Example 204] yielded a Ki (dopamine D2 receptor; [1]) of 0.0144 µM and a Ki (serotonin S2 receptor) of 0.187 µM.

`CCC(Cl)c1cc(N2CCN(CC)CC2)cc(-c2ccccc2Cl)c1Cl` (centres unmarked) [Example 205, 1-Ethyl-4-[3-(2-chlorophenyl)-4-chloro-5-(1-chlorophenyl0phenylpiperazine)]phenylpiperazine] was tested, and the Ki (dopamine D2 receptor; [1]) was 0.00283 µM and the Ki (serotonin S2 receptor) was 0.0512 µM.

`CC[C@@H](F)c1cc(N2CCN(C)CC2)cc(-c2ccccc2CF)c1Cl` [Example 209] gave a Ki (dopamine D2 receptor; [1]) of 0.0039 µM and a Ki (serotonin S2 receptor) of 0.0427 µM.

Compound `CC[C@H](F)c1cc(N2CCN(C)CC2)cc(-c2ccccc2CF)c1Cl` [Example 210, 1-Methyl-4-{3-(2-fluoromethylphenyl)-4-chloro-5-[1-(S)-fluoropropyl]}phenylpiperazine] has a Ki (dopamine D2 receptor; [1]) of 0.0161 µM and a Ki (serotonin S2 receptor) of 0.00625 µM.

Compound `CC[C@@H](F)c1cc(N2CCN(CC)CC2)cc(-c2ccc(F)cc2C)c1Cl` [Example 212, 1-Ethyl-4-{3-[2-(4-fluorotolyl)]-4-chloro-5-[1-(R)-fluorophenyl]}phenylpiperazine] has a Ki (dopamine D2 receptor; [1]) of 0.0039 µM and a Ki (serotonin S2 receptor) of 1.02 µM.

`CCC(F)c1cc(N2CCN(CC)CC2)cc(-c2c(C)cccc2C)c1Cl` (centres unmarked) [Example 215, 1-Ethyl-4-[3-(2,6-xylyl)-4-chloro-5-(1-fluoropropyl)]phenylpiperazine] showed a Ki (dopamine D2 receptor; [1]) of 0.00228 µM and a Ki (serotonin S2 receptor) of 0.0153 µM.

`CC[C@@H](F)c1cc(N2CCN(CC)CC2)cc(-c2ccccc2C(F)(F)F)c1Cl` [Example 216, 1-Ethyl-4-{3-(2-trifluoromethylphenyl)-4-chloro-5-[1-(R)-fluoropropyl]}phenylpiperazine] was tested, and the Ki (dopamine D2 receptor; [1]) was 0.0113 µM and the Ki (serotonin S2 receptor) was 0.079 µM.

With `CCc1ccccc1-c1cc(N2CCN(CC)CC2)cc(C(F)CC)c1Cl` (centres unmarked) [Example 217, 1-Ethyl-4-[3-(2-ethylphenyl)-4-chloro-5-(1-fluoropropyl)]phenylpiperazine] the Ki (dopamine D2 receptor; [1]) was 0.00357 µM and the Ki (serotonin S2 receptor) was 0.0255 µM.

Work on `CCc1ccccc1-c1cc(N2CCN(CCO)CC2)cc(C(F)CC)c1Cl` (centres unmarked) [Example 218, 1-(2-Hydroxyethyl)-4-[3-(2-ethylphenyl)-4-chloro-5-(1-fluoropropyl)]phenylpiperazine] yielded a Ki (dopamine D2 receptor; [1]) of 0.00539 µM and a Ki (serotonin S2 receptor) of 0.0301 µM.

`CC[C@@H](F)c1cc(N2CCN(CCO)CC2)cc(-c2ccccc2C(F)(F)F)c1Cl` [Example 219, 1-(2-Hydroxyethyl)-4-{3-(2-trifluoromethylphenyl)-4-chloro-5-[1-(R)-fluoropropyl]}phenylpiperazine] showed a Ki (dopamine D2 receptor; [1]) of 0.00554 µM and a Ki (serotonin S2 receptor) of 0.151 µM.
